Laboratory results published in ChEMBL document CHEMBL1128085, “Asymmetric synthesis of FR165914: A novel 3-adrenergic agonist with a benzocycloheptene structure” (Bioorg Med Chem Lett, 1995).
pEC50, pIC50: −log10 of the molar value.

Tests used:
[1] = target: Beta-1 adrenergic receptor (Cavia porcellus, UniProt B0FL73); assay: Agonistic activity against Beta-1 adrenergic receptor in guinea pig atrium; assay type: functional, tissue-based, Cardiac atrium
[2] = target: Beta-3 adrenergic receptor (Rattus norvegicus, UniProt P26255); assay: Agonistic activity against Beta-3 adrenergic receptor in rat colon; assay type: functional
Chain of Beta-3 adrenergic receptor (P26255 whole entry): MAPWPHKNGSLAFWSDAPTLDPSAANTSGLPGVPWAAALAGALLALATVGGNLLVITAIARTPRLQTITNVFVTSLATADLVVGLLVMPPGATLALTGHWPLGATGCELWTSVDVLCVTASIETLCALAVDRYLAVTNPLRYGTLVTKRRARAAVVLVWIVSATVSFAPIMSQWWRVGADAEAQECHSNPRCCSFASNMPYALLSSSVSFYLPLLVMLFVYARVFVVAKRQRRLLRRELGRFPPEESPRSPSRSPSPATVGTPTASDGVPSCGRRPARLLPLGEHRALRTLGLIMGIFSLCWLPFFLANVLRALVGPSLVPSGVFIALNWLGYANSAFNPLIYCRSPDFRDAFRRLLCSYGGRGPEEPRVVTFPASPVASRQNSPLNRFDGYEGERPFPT

Chain of Beta-1 adrenergic receptor (B0FL73 whole entry): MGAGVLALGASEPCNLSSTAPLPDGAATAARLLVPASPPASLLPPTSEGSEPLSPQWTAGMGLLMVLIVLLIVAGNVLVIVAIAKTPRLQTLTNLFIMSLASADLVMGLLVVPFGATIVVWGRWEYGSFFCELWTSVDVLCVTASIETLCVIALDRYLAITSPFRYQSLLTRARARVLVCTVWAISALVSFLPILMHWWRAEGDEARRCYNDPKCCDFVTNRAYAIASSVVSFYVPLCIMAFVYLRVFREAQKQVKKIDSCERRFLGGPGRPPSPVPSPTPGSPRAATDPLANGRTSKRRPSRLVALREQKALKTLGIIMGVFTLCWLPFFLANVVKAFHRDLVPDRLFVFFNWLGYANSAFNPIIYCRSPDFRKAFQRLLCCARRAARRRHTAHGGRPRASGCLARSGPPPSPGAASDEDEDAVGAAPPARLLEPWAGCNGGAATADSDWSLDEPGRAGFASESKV

pEC50 [1]: < 5.00
pIC50 [2]: 8.22
SMILES: O=C(O)C1(C(=O)O)Oc2cc3c(cc2O1)C[C@@H](NC[C@H](O)c1cccc(Cl)c1)CCC3
